For series [1], the system named is MCF-7 breast cancer cells. As to the kind of experiment: MTT cellular proliferation assay, MCF-7. Particulars: Homo sapiens, MCF7, 72 h, Table 3; 72 h, MTT; mean ± SD; read-out: IC50 MCF-7 breast cancer. Format: cell-based, human. On the procedure: […] […] […] After this incubation, 0.01 mL of MTT was added to each well and the plates incubated for 2 h at 37° C. The cells were then solubilised by adding 0.1 mL of 10% SDS-50% isobutanol in 0.01 M HCl and the plates then read at 570 nm on a scanning multiwell spectrophotometer (Titertek Multiscan; Beckman Instruments Inc, California). MTT colour formation was directly proportional to the number of viable cells.
(§1) Dp2mT served as a negative control.
(§2) Dp2mT served as a negative control as the methyl group at the 2-position hinders Fe-chelation.

Series [2] relates to SK-N-MC neuroepithelioma cells. Nature of the series: MTT cellular proliferation assay, SK-N-MC. Format: cell-based, human. Particulars: Homo sapiens, SK-N-MC; Table 3; 0-25 μM, 72 h, MTT; mean ± SD; read-out: IC50 SK-N-MC neuroepithelioma. On the procedure:
[…] […] After this incubation, 0.01 mL of MTT was added to each well and the plates incubated for 2 h at 37° C. The cells were then solubilised by adding 0.1 mL of 10% SDS-50% isobutanol in 0.01 M HCl and the plates then read at 570 nm on a scanning multiwell spectrophotometer (Titertek Multiscan; Beckman Instruments Inc, California). MTT colour formation was directly proportional to the number of viable cells.
The effect of the compounds on the proliferation of SK-N-MC neuroepithelioma cells was examined using the MTT assay (described above).
as §1

A further series concerns SK-Mel-28 melanoma cells. As to the kind of experiment: MTT cellular proliferation assay, SK-Mel-28. Type of series: cell-based, human. The note with it: Homo sapiens, SK-MEL-28, 72 h, Table 3, mean ± SD. The protocol:
The final concentration of the compounds was 0.39-50 μM. […] […] After this incubation, 0.01 mL of MTT was added to each well and the plates incubated for 2 h at 37° C. The cells were then solubilised by adding 0.1 mL of 10% SDS-50% isobutanol in 0.01 M HCl and the plates then read at 570 nm on a scanning multiwell spectrophotometer (Titertek Multiscan; Beckman Instruments Inc, California). MTT colour formation was directly proportional to the number of viable cells.
as §1, §2

Series [3] in a line: Mouse weight loss and haematological indices in M109-bearing mice. Format: in vivo. The note with it: Triapine 6 mg/kg; Mean ± SEM. On the procedure:
The tumour cells were passaged in CD2F1 mice by preparing a brei from the tumour and injecting it sc.^20 Dp44mT was dissolved in 30% (v/v) propylene glycol in saline and injected iv 4 days after tumour engraftment, twice daily for 5 days followed by a “rest period” of 2 days when the animal was not injected. On the twelfth day after tumour implantation, mice were sacrificed using methoxyfluorane and cardiac puncture performed. Blood counts and erythrocyte indices were measured using a Sysmex Blood Counter (Prince of Wales Hospital, Sydney, Australia). Mouse body weight changes during the treatment period were recorded. The tumours were weighed and fixed for histological examination. The experimental groups consisted of eight mice for the control and each treatment (Table 5).

The test system of another series is M109 lung carcinoma. Nature of the series: Inhibition of M109 lung carcinoma growth in vivo. Also on record: species or system mouse. The note with it: 6 mg/kg (MTD), day 12. On the procedure: Inhibition of M109 Lung Cancer Cell Growth by Iron Chelators In Vivo Female CD2F1 mice aged 8-10 weeks old were sc implanted with 1×10^5 M109 cells. The tumour cells were passaged in CD2F1 mice by preparing a brei from the tumour and injecting it sc.^20 Dp44mT was dissolved in 30% (v/v) propylene glycol in saline and injected iv 4 days after tumour engraftment, twice daily for 5 days followed by a “rest period” of 2 days when the animal was not injected. On the twelfth day after tumour implantation, mice were sacrificed using methoxyfluorane and cardiac puncture performed. Blood counts and erythrocyte indices were measured using a Sysmex Blood Counter (Prince of Wales Hospital, Sydney, Australia). Mouse body weight changes during the treatment period were recorded. The tumours were weighed and fixed for histological examination. The experimental groups consisted of eight mice for the control and each treatment (Table 5).
As a relevant positive control, animals were administered Triapine® at its MTD (6 mg/kg). The tumour weight was measured on the twelfth day after the tumour cell implantation.

A short description of series [4]: Maximum tolerated dose in CD2F1 hybrid mice. Particulars: female, CD2F1, mouse, in vivo, iv. Type of series: in vivo. The protocol: BALB/c and DBA/2 mice were obtained from Animal Resources Centre (University of New South Wales (UNSW), Sydney, Australia) and crossed to produce CD2F1 animals (all procedures used were approved by the Animal Ethics Committee, UNSW). Groups of eight female CD2F1 mice (8-10 weeks old) were fed and watered ad-libitum, and injected via the tail vein with compounds being studied in 30% propylene glycol in 0.9% sterile saline, twice a day, 6 h apart, 5 days/week for 2 weeks. The maximum tolerated dose (MTD) was defined as the dose at which 30% of a cohort either died or lost weight in excess of 10%.^19

Regarding `NC(=S)NN=Cc1ncccc1N` [Triapine, 3-aminopyridine-2-carboxaldehyde thiosemicarbazone], the IC50 in series [1] amounted to 3000 ± 1500 nM. Also, in series [2], the IC50 came to 260 nM. Moreover, the IC50 with SK-Mel-28 melanoma cells was found to be 2600 ± 600 nM. In series [3], the Body weight loss is given as 5.3 ± 0.4 g, the Haematocrit is recorded as 0.28 ± 0.01, the Haemoglobin turned out to be 8.6 ± 0.5 g/dL and the Platelets is given as 976 ± 171 10^9/L. Further, in series [3], the RBC is 6.1 ± 0.4 10^12/L and the WBC is on record as 1.4 ± 0.3 10^9/L. The tumour weight with M109 lung carcinoma is given as 10 % of the control. In series [4], this molecule yielded an MTD at 2 weeks of 6 mg/kg.

For the origin of these results see patent US20060252798A1, “Metal ion chelators and therapeutic use thereof” (priority 2003, published 2006).
